Test results reported in publication PMC10147923, “Pain-causing stinging nettle toxins target TMEM233 to modulate NaV1.7 function” (Nature Communications, 2023).
“And” between values parts separate entries of the source, which are not always exact repeats. Equal values may be shown once. Positions of bridges follow the written chain, without caps; N, C: chain ends. Residues, ends and D or L forms follow the SMILES beside them.

What was measured:
NaV1.7/TMEM233 = NaV1.7/TMEM233 (Homo sapiens, UniProt B4DJY2+Q15858); assay: Ramp currents with ExTxA, HEK293 NaV1.7/TMEM233; type: cell-based
[1] = test system: DRG neurons from wild-type C57BL/6 mice; assay: Calcium imaging, wild-type DRG neurons; type: cell-based, mouse
Description: DRG from all spinal levels were isolated from male and female mice (wild-type C57BL/6 J, Tmem233^Cre/Cre, NaV1.8^Cre/Cre, NaV1.9^−/− or littermate controls) as previously described[36],[38],[39]. For Ca^2+ imaging experiments, DRG neurons were dissociated following incubation with 1% collagenase type IV (Worthington, New Jersey, USA) for 1.5 h (37 °C, 5% CO2) and 2.5% trypsin (Sigma-Aldrich, Montana, USA) for 15 min and resuspended in Dulbecco’s modified Eagle’s medium (DMEM) (Sigma-Aldrich, New South Wales, Australia) supplemented with 10% fetal bovine serum (FBS) (Thermofisher, Massachusetts, USA) and penicillin/streptomycin (Thermofisher, Massachusetts, USA). Following plating in 96-well poly-D-lysine–coated culture plates, isolated neurons were incubated for 24 h at 37 °C with 5% CO2 prior to imaging.
Dissociated DRG neurons from Tmem233^Cre/Cre and C57BL/6 mice were plated on PDL-coated 96-well black-walled imaging plates and loaded with Fluo-4 AM calcium indicator (5 μM) (Invitrogen, Massachusetts, USA) for 1 h in culture medium. Cells were washed with Hanks’ balanced salt solution containing 20 mM HEPES and then transferred to the recording chamber of a Nikon Ti-E Deconvolution inverted microscope equipped with a Lumencor Spectra LED light source. Fluorescence images (excitation, 485 nm; emission, 521 nm) were acquired at 1 frame per second using a ×20 objective. Following the recording of baseline fluorescence (20 s), cells were consecutively exposed to buffer control (0.1% BSA, t = 30 s), ExTxA (10 nM, t = 60 s), and 30 mM KCl (30 mM, t = 210 s). […] Cells responding to buffer control were excluded from analysis.

NaV1.8 = type: cell-based, mouse
NaV1.7/TRARG1 = NaV1.7/TRARG1 (Homo sapiens, UniProt Q15858+Q8IXB3); type: cell-based
Drosophila melanogaster = type: in vivo; conditions: injection 0.5 nmol, affected/total
Description: To test for insecticidal activity, we injected ExTxA into three-day old Drosophila melanogaster females (average weight 0.875 mg). In total 77 D. melanogaster were used for this study: 52 individuals were each injected with 0.5 nmol (50 nL of a […] solution) ExTxA, while 25 individuals served as control group and were injected with vehicle control (3% acetonitrile, 0.1% bovine serum albumin in water) and scored by a blinded observer.

hNaV1.7/TMEM233 = assay: Persistent current, Xenopus oocytes hNaV1.7/TMEM233; type: cell-based, human
Description: (§1) Human NaV1.7 and TMEM233 genes cloned into pcDNA3.1 plasmid were linearized with NotI restriction enzyme and used as template for cRNA synthesis using T7 polymerase (mMessage mMachine Kit; Life Technologies). Stage V/VI oocytes were injected with 5–20 ng total RNA, then incubated at 17 °C for 1–3 days in 50% Leibovitz’s L-15 medium (Gibco), supplemented with 25 µg/mL gentamicin, 25 µg/mL streptomycin, and 2.5% fetal horse serum. Two-electrode voltage clamp (Axoclamp 900 A amplifier; Axon Instruments) were performed at room temperature in ND96 solution (in mM: 96 NaCl, 2 KCl, 1 MgCl2, 1.8 CaCl2, 5 HEPES; pH 7.4 with NaOH) with a ∼40 μL recording chamber. In experiments where ExTxA was added, solutions were supplemented with 0.05% fatty-acid free bovine serum albumin. Borosilicate glass microelectrodes had resistances of 0.2–0.8 MΩ when backfilled with 3 M KCl. Data were digitized at 20 kHz and filtered at 2 kHz using pCLAMP 11 software (Digidata 1550B; Axon Instruments).
ExTxA activity was assayed at 1 µM, analyzing the current from a 50 ms step to −10 mV every 10 s, from a holding volage of −80 mV. For all other voltage protocols, oocytes were held at −90 mV. Activation curves were obtained by measuring peak currents during steps from −100 mV to +60 mV in +10 mV increments applied every 10 s, with G/Gmax plot between −80 mV and +10 mV. Steady-state inactivation curves plot the peak current at a test pulse of −10 mV, after a 200 ms pre-pulse from −100 mV to +40 mV in +10 mV increments applied every 10 s. Slow inactivation curves plot the peak current at a test pulse of −10 mV, after a 10 s pre-pulse from −110 mV to −10 mV in +10 mV increments applied every 20 s. To determine recovery from inactivation, oocytes were first stepped to −10 mV, then rested at −90 mV for a variable time interval indicated in the graph, then a second −10 mV depolarization applied to determine the fraction of channls recovered. This protocol was applied every 13 s (time between each initial −10 mV step).

hNaV1.1 = assay: Persistent current, HEK293-hNaV1.1/β1; type: cell-based, human; conditions: ExTxA 1 µM; individual cells
hNaV1.7 = assay: Persistent current, Xenopus oocytes expressing hNaV1.7 (two-electrode voltage clamp); type: cell-based, human; conditions: ExTxA 1 µM
Description: as §1
ExTxA activity was assayed at 1 µM, analyzing the current from a 50 ms step to −10 mV every 10 s, from a holding volage of −80 mV. For all other voltage protocols, oocytes were held at −90 mV. Activation curves were obtained by measuring peak currents during steps from −100 mV to +60 mV in +10 mV increments applied every 10 s, with G/Gmax plot between −80 mV and +10 mV. […]

Chain of NaV1.7/TRARG1 (Q07699 19-218): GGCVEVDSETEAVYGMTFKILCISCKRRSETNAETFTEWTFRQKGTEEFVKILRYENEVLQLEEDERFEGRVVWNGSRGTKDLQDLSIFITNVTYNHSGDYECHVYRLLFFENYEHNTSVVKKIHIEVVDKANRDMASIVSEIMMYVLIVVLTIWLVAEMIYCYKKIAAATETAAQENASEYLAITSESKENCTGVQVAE
Chain of NaV1.7/TRARG1 (Q15858 whole entry): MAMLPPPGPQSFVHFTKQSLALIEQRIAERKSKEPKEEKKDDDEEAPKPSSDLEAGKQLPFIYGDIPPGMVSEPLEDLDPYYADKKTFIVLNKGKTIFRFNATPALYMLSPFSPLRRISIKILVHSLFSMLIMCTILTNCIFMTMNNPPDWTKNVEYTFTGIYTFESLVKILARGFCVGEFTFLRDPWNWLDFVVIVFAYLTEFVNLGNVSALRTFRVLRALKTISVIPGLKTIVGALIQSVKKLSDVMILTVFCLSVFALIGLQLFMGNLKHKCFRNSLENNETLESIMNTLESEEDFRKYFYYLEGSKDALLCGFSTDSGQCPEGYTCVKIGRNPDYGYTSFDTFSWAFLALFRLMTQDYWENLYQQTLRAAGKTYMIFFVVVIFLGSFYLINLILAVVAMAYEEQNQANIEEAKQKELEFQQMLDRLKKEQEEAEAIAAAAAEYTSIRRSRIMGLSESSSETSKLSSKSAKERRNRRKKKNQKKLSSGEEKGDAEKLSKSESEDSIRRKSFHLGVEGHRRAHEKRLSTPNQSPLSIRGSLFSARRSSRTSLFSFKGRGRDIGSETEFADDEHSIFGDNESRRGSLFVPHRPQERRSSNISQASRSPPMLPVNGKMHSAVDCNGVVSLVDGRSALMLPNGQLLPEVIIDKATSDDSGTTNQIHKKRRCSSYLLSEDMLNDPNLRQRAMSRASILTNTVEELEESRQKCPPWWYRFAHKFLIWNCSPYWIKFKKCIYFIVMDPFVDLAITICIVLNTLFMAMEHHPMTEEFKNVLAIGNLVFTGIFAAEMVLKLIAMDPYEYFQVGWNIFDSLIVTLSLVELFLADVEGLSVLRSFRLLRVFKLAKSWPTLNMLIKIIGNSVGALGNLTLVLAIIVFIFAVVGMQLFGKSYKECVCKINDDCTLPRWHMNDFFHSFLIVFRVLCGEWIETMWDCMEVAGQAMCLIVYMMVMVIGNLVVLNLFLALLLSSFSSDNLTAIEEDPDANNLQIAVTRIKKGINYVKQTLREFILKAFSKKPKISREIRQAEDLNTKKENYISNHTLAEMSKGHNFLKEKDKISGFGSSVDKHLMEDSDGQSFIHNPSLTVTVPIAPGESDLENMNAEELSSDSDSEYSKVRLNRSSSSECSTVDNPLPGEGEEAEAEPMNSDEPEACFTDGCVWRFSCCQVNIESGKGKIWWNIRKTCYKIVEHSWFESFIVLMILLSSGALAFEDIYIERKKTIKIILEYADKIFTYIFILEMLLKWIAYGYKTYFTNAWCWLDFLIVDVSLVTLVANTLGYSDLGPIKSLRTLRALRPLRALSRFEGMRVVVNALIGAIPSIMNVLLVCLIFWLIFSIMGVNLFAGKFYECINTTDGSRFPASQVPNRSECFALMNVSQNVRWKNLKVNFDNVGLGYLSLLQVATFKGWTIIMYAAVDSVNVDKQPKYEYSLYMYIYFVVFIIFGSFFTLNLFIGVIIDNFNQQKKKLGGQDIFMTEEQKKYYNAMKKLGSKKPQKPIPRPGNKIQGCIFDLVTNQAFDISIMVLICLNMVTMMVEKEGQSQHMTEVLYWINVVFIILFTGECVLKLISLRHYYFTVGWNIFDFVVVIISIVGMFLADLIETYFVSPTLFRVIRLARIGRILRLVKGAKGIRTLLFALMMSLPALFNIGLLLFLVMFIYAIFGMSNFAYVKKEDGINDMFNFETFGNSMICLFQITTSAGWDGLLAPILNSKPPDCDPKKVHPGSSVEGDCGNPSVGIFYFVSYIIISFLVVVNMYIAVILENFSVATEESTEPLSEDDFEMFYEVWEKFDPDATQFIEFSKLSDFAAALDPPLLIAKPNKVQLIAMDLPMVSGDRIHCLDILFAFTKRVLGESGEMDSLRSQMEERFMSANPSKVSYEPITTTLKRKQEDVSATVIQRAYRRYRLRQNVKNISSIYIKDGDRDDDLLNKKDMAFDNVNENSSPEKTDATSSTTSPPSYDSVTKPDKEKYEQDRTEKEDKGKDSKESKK
Chain of NaV1.7/TRARG1 (Q8IXB3 whole entry): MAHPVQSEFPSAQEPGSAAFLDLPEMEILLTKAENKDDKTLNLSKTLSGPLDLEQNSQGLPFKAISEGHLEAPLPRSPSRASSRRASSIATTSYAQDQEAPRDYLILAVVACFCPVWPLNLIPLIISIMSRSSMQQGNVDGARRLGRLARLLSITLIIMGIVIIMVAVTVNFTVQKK

CC[C@H](C)[C@@H]1NC(=O)[C@H](CCCNC(=N)N)NC(=O)[C@H](Cc2ccccc2)NC(=O)[C@H](CC(C)C)NC(=O)[C@H](CO)NC(=O)[C@@H]2CSSC[C@@H]3NC(=O)[C@H]([C@@H](C)O)NC(=O)[C@H](CSSC[C@H](NC(=O)[C@H](CCCNC(=N)N)NC(=O)[C@@H]4CCCN4C(=O)[C@@H](N)CC(C)C)C(=O)N[C@@H](CC(=O)O)C(=O)N[C@@H](CO)C(=O)N4CCC[C@H]4C(=O)N[C@@H](Cc4ccccc4)C(=O)N2)NC(=O)[C@H](CCCCN)NC(=O)[C@H](CC(=O)O)NC(=O)CNC(=O)[C@H](CSSC[C@@H](C(=O)N[C@H](C(=O)N2CCC[C@H]2C(=O)N[C@@H](CC(=O)O)C(=O)N[C@H](C(=O)O)C(C)C)C(C)C)NC(=O)[C@H](CC(C)C)NC(=O)CNC(=O)[C@H](Cc2ccccc2)NC(=O)[C@H]([C@@H](C)CC)NC(=O)[C@@H]2CCCN2C(=O)[C@H](CC(C)C)NC(=O)[C@@H]2CCCN2C(=O)[C@H](C(C)C)NC3=O)NC(=O)[C@H](CC(C)C)NC(=O)CNC1=O [ExTxA, excelsatoxin A] (H-LPRCDSPFCSLFRIGLCGDKCTCVPLPIFGLCVPDV-OH; disulfide 4-21, 9-23, 17-32)
Ramp current (0.2 mV/s) (NaV1.7/TMEM233): -1.952 ± 0.950 nA
Ramp current (NaV1.7/TMEM233; NaV1.7-TMEM233 + ExTxA (100 nM), individual cells): -2.267 and -0.5155 and -0.3095 and -7.0521 and -0.7027 and -0.3607 and -2.095 and -0.6283
currents induced by slow voltage-ramps (NaV1.7/TMEM233; extracellular ExTxA): an increase of currents induced by slow voltage-ramps
ExTxA-induced DRG Ca2+ responses ([1]; ExTxA 10 nM, wt, Fluo-4, >1.5-fold increase, mean ± SEM, n = 10 wells): 53.20 ± 1.789 % neurons activated
calcium imaging response (Fig. 3f) ([1]; WT, individual values, one line each (n = 10)): 51.5152 and 56.8182 and 58.0645 and 43.75 and 44.8276 and 50.7042 and 59.292 and 51.8519
calcium imaging response (Fig. 3f), Mean ([1]; WT, mean, number of values 10, Std. Deviation 5.657, SEM 1.789): 53.2
calcium imaging response (Fig. 3f), Median ([1]; WT, median, number of values 10): 53.9
DRG NaV1.8 Δ persistent current (I40 ms/Ipeak) (NaV1.8): 0.050 ± 0.015
LogEC50 (NaV1.7/TRARG1; Nav1.7/TRARG1, 95% CI -6.511 to -5.182, Fig 4g): -5.623
HillSlope (NaV1.7/TRARG1; Nav1.7/TRARG1, Fig 4g): 0.6926
Top (NaV1.7/TRARG1; Nav1.7/TRARG1, best-fit, constraint Top < 1, Fig 4g): 1
ExTxA-induced currents with TRARG1 (NaV1.7/TRARG1; co-expression with NaV1.7): resulted in ExTxA-induced persistent currents
paralysis (Drosophila melanogaster; after 15 min, control 1/25): 2/52
death (Drosophila melanogaster; after 2 h, control 0/25): 1/52
Xenopus oocyte persistent current (I40 ms/Ipeak) (hNaV1.7/TMEM233): 0.727 ± 0.020
Nav:TMEM, 1:1 molar, mean (persistent current) (hNaV1.7/TMEM233; Supplementary Fig 1f, 1 uM, toxin not named, mean of n = 6, Control mean 0.0806, n = 6): 0.727
Nav:TMEM, 1:1 molar, individual values (persistent current) (hNaV1.7/TMEM233; Supplementary Fig 1f, 1 uM, toxin not named, single replicates): 0.6869 and 0.7919 and 0.702 and 0.7846 and 0.7038 and 0.6927
Nav:TMEM, 1:1 molar, difference between means (1 uM - Control) ± SEM (hNaV1.7/TMEM233; Supplementary Fig 1f, unpaired t test P <0.0001, 95% CI 0.5949 to 0.6979): 0.6464 ± 0.0231
persistent current (I40 ms/Ipeak) (hNaV1.1): 0.000881 and 0.001374 and 0.002237 and -0.03938 and -0.00046 and -0.00216 and -0.00201 and 0.01125 and 0.00618 and -0.00021 and -0.01358
Xenopus oocyte persistent current (I40 ms/Ipeak) (hNaV1.7; hNaV1.7 alone, mean ± SEM, n = 6): 0.081 ± 0.012
persistent current (I40 ms/Ipeak) (hNaV1.7; individual oocytes): 0.01056 and 0.002122 and 0.005805 and 0.01324 and 0.01132 and 0.02838 and 0.05496 and 0.01837 and -0.00648 and -0.01247 and 0.02865
toxicity to TE-671 cells, ExTxA alone (TE-671 cells; ExTxA 1 µM): did not cause visible toxicity
toxicity to TE-671 cells, with veratridine and ouabain (TE-671 cells; ExTxA 1 µM + veratridine 5 µM + ouabain 20 nM): cell death
